Where “and” joins values, the source holds several entries; their conditions need not be identical. Equal entries are not always repeated. ± gives the expanded uncertainty stated by the source.
Assay: wn = mass fraction of the nth substance listed
Conditions: Liquid, Pulse-echo method, w2 = 0.5

FC(F)C(F)(F)F [pentafluoroethane] + FCF
speed of sound
Conditions	253.09 K	258.09 K	265.61 K	273.12 K	280.72 K	288.2 K
830 kPa	–	–	–	574.5 ± 1.3 m/s	–	–
1000 kPa	–	656.5 ± 1.3 m/s	–	–	–	–
1030 kPa	–	–	–	–	535.2 ± 1.3 m/s	–
1060 kPa	–	–	–	–	535.5 ± 1.3 m/s	–
1120 kPa	–	657.6 ± 1.3 m/s	–	–	–	–
1150 kPa	–	–	–	–	536.9 ± 1.3 m/s	–
1180 kPa	684.1 ± 1.3 m/s	–	–	–	–	–
1190 kPa	–	–	618.9 ± 1.3 m/s	–	–	–
1220 kPa	–	–	–	578.8 ± 1.3 m/s	–	–
1260 kPa	684.8 ± 1.3 m/s	658.8 ± 1.3 m/s	–	–	538 ± 1.3 m/s	–
1340 kPa	–	–	620 ± 1.3 m/s	–	–	–
1350 kPa	–	–	–	–	–	496 ± 1.3 m/s
1360 kPa	–	–	–	580.1 ± 1.3 m/s	–	–
1380 kPa	685.8 ± 1.3 m/s	659.7 ± 1.3 m/s	–	–	539.4 ± 1.3 m/s	–
1420 kPa	–	–	–	–	–	497.2 ± 1.3 m/s
1480 kPa	–	–	–	–	–	498 ± 1.3 m/s
1500 kPa	686.8 ± 1.3 m/s	660.8 ± 1.3 m/s and 661 ± 1.3 m/s	621.6 ± 1.3 m/s	581.6 ± 1.3 m/s	540.9 ± 1.3 m/s	–
1550 kPa	–	–	–	–	–	499 ± 1.3 m/s
1620 kPa	687.7 ± 1.3 m/s	–	–	–	–	–
1630 kPa	–	662.2 ± 1.3 m/s	–	–	542.3 ± 1.3 m/s	–
1750 kPa	688.8 ± 1.3 m/s	663.1 ± 1.3 m/s	623.8 ± 1.3 m/s	584.2 ± 1.3 m/s	543.8 ± 1.3 m/s	–
2010 kPa	690.6 ± 1.3 m/s	665.1 ± 1.3 m/s	626.1 ± 1.3 m/s	586.8 ± 1.3 m/s	546.7 ± 1.3 m/s	–
2250 kPa	692.6 ± 1.3 m/s	667.1 ± 1.3 m/s	628.3 ± 1.3 m/s	589.4 ± 1.3 m/s	549.6 ± 1.3 m/s	–
2510 kPa	694.3 ± 1.3 m/s	669.2 ± 1.3 m/s	630.7 ± 1.3 m/s	591.9 ± 1.3 m/s	552.3 ± 1.3 m/s	–
2750 kPa	696.4 ± 1.3 m/s	671.4 ± 1.3 m/s	633 ± 1.3 m/s	594.1 ± 1.3 m/s	555 ± 1.3 m/s	–
3010 kPa	698.4 ± 1.3 m/s	673.4 ± 1.3 m/s	635.2 ± 1.3 m/s	596.9 ± 1.3 m/s	557.9 ± 1.3 m/s	–
3500 kPa	702.3 ± 1.3 m/s	677.1 ± 1.3 m/s	639.4 ± 1.3 m/s	601.6 ± 1.3 m/s	563.2 ± 1.3 m/s	–
4000 kPa	705 ± 1.3 m/s	681.1 ± 1.3 m/s	644 ± 1.3 m/s	606.4 ± 1.3 m/s	568.5 ± 1.3 m/s	–
4500 kPa	709.5 ± 1.3 m/s	685.3 ± 1.3 m/s	648.1 ± 1.3 m/s	611 ± 1.3 m/s	573.7 ± 1.3 m/s	–
5000 kPa	713.3 ± 1.3 m/s	689.1 ± 1.3 m/s	652.1 ± 1.3 m/s	615.4 ± 1.3 m/s	579 ± 1.3 m/s	–
6010 kPa	720.6 ± 1.3 m/s	696.6 ± 1.3 m/s	660.6 ± 1.3 m/s	624.4 ± 1.3 m/s	588.6 ± 1.3 m/s	–
7010 kPa	727.4 ± 1.3 m/s	703.9 ± 1.3 m/s	668.4 ± 1.3 m/s	633.3 ± 1.3 m/s	598.3 ± 1.3 m/s	–
8000 kPa	734.2 ± 1.3 m/s	711 ± 1.3 m/s	676.1 ± 1.3 m/s	641.5 ± 1.3 m/s	607.1 ± 1.3 m/s	–
9000 kPa	740.8 ± 1.3 m/s	718.1 ± 1.3 m/s	683.8 ± 1.3 m/s	649.3 ± 1.3 m/s	615.9 ± 1.3 m/s	–
10000 kPa	747.5 ± 1.3 m/s	724.8 ± 1.3 m/s	691 ± 1.3 m/s	657.6 ± 1.3 m/s	624.5 ± 1.3 m/s	–
12000 kPa	760.2 ± 1.3 m/s	738.2 ± 1.3 m/s	705.2 ± 1.3 m/s	672.7 ± 1.3 m/s	640.6 ± 1.3 m/s	–
14000 kPa	772.5 ± 1.3 m/s	751.2 ± 1.3 m/s	718.9 ± 1.3 m/s	687.3 ± 1.3 m/s	656.1 ± 1.3 m/s	–
16010 kPa	784.5 ± 1.3 m/s	763.4 ± 1.3 m/s	732.1 ± 1.3 m/s	701.1 ± 1.3 m/s	670.9 ± 1.3 m/s	–
18000 kPa	795.3 ± 1.3 m/s	775 ± 1.3 m/s	744.4 ± 1.3 m/s	714.5 ± 1.3 m/s	684.9 ± 1.3 m/s	–
20000 kPa	806.9 ± 1.3 m/s	786.7 ± 1.3 m/s	756.2 ± 1.3 m/s	727 ± 1.3 m/s	698.3 ± 1.3 m/s	–
23000 kPa	822.9 ± 1.3 m/s	803.2 ± 1.3 m/s	773.6 ± 1.3 m/s	745.4 ± 1.3 m/s	717 ± 1.3 m/s	–
26000 kPa	837.9 ± 1.3 m/s	818.7 ± 1.3 m/s	790.1 ± 1.3 m/s	762.7 ± 1.3 m/s	735.5 ± 1.3 m/s	–
29010 kPa	852.8 ± 1.3 m/s	833.7 ± 1.3 m/s	806.2 ± 1.3 m/s	779 ± 1.3 m/s	752.6 ± 1.3 m/s	–
32000 kPa	867.2 ± 1.3 m/s	848.7 ± 1.3 m/s	821.5 ± 1.3 m/s	794.8 ± 1.3 m/s	769.2 ± 1.3 m/s	–
35000 kPa	880.5 ± 1.3 m/s	862.6 ± 1.3 m/s	835.5 ± 1.3 m/s	809.6 ± 1.3 m/s	785.1 ± 1.3 m/s	–
40000 kPa	902.6 ± 1.3 m/s	885 ± 1.3 m/s	858.8 ± 1.3 m/s	833.5 ± 1.3 m/s	809.7 ± 1.3 m/s	–
45000 kPa	923.6 ± 1.3 m/s	906.3 ± 1.3 m/s	880.8 ± 1.3 m/s	856.4 ± 1.3 m/s	833.1 ± 1.3 m/s	–
50000 kPa	943.8 ± 1.3 m/s	926.7 ± 1.3 m/s	902 ± 1.3 m/s	877.8 ± 1.3 m/s	855.3 ± 1.3 m/s	–
55000 kPa	962.8 ± 1.3 m/s	946.6 ± 1.3 m/s	922.4 ± 1.3 m/s	898.7 ± 1.3 m/s	876.4 ± 1.3 m/s	–
60000 kPa	981.2 ± 1.3 m/s	965.6 ± 1.3 m/s	941.6 ± 1.3 m/s	919 ± 1.3 m/s	898.9 ± 1.3 m/s	–
65000 kPa	999.5 ± 1.3 m/s	983.3 ± 1.3 m/s	959.9 ± 1.3 m/s	938 ± 1.3 m/s	916.7 ± 1.3 m/s	–

Conditions	speed of sound [m/s]
273.12 K	574.5 ± 1.3
280.72 K	535.2 ± 1.3

Source: the NIST ThermoML archive (doi:10.1021/je060243s)
